In ChEMBL document CHEMBL1159279, “Mechanism-based antitumor screening of Caribbean marine organisms: isolation and structure determination of novel diterpenoids from the gorgonian Eunicea tourneforti” (1995):

Each compound was assayed on Saccharomyces cerevisiae (assay: Antifungal activity against DNA-damage repair genes deficient Saccharomyces cerevisiae RS 321 after 48 hrs by mechanism based bioassay).
Assay type: functional
In the case of `CC(=O)OCC(COC(C)=O)=C1C=C[C@]2(C)C/C=C(\C)CC[C@@H]3O[C@@]3(C)CC[C@@H]12`, the IC12 is reported as over 3000 µg/mL.
Compound `CC(=O)OC/C1=C\C[C@@]2(C)CC(=O)C(=C(C)C)[C@@H]2CC[C@]2(C)O[C@H]2CC1` has an IC12 of 1800 µg/mL.
With `C/C1=C\C[C@@]2(C)C(=O)C=C(C(C)C)[C@@H]2CC[C@]2(C)O[C@H]2CC1` the IC12 was 2600 µg/mL.
Work on `CC(C)=C1C(=O)C[C@]2(C)C/C=C(\C)CC[C@@H]3O[C@@]3(C)CC[C@@H]12` yielded an IC12 of 1500 µg/mL.
Compound `C=C(C)C1C/C=C(\C)CC[C@H](O)[C@@]2(C)CCC=C(CC1)C(=O)O2` (stereo partly specified) has an IC12 of over 3000 µg/mL.
For `CC(=O)O[C@H]1C/C(C)=C/C[C@@]2(C)CC(=O)C(=C(C)C)[C@@H]2CC[C@]2(C)O[C@@H]12`, the IC12 was over 3000 µg/mL.
